Tests used:
[1] = molecular target: T1, Lactobacillus pentosus NADH oxidase (Lp Nox), wild type, SEQ ID NO:1 (Lactiplantibacillus pentosus, UniProt A0A0U3FIG2); conditions: role: cofactor; oxidation of MNAH and BNAH by wild-type Lp Nox; cited from earlier work
T1 sequence (A0A0U3FIG2 1-450): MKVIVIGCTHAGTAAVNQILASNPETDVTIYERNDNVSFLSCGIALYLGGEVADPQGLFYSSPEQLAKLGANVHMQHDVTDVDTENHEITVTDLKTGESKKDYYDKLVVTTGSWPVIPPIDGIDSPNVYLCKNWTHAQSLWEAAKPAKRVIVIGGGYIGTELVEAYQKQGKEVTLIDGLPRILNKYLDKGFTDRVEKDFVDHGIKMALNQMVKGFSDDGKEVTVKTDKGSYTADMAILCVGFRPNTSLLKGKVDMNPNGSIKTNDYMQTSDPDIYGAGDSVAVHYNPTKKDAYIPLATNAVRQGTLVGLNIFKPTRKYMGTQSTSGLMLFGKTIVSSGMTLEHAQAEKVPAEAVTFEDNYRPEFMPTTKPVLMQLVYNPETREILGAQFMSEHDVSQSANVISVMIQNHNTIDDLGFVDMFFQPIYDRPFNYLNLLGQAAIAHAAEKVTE

[2] = molecular target: T2, Lactobacillus pentosus NADH oxidase (Lp Nox) variant LP-3 (I158S-D177W-G178E-V240L), SEQ ID NO:6 (Lactiplantibacillus pentosus, UniProt A0A0U3FIG2, D177W/G178E/I158S/V240L); test: Lp Nox enzymatic kinetics, cofactor oxidation at 340 nm, variant LP-3; format: biochemical; conditions: role: cofactor, 50 mM Tris-HCl pH 7.0, 37 °C
T2 construct: variant LP-3
T2 sequence (A0A0U3FIG2 1-450 I158S/D177W/G178E/V240L): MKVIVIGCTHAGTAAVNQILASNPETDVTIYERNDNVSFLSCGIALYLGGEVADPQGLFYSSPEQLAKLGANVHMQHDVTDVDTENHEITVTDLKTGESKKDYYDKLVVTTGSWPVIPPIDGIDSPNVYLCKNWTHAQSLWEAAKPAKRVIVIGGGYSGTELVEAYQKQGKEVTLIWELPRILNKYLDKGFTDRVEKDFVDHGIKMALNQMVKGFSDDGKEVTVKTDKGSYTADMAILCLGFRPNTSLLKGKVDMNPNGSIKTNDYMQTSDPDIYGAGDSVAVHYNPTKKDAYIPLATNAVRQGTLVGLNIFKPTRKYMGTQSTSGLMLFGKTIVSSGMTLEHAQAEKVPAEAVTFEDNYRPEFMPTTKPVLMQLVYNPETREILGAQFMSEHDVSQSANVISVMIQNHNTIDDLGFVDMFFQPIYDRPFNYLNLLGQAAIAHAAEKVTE
Description: (§1) Protein Expression and Purification. Lp Nox wild type or variants (see Table 1) are expressed with E. coli BL21 (DE3) with plasmids inoculated in 2× YT media with 200 mg L^−1 ampicillin. Expression was carried out by inoculation of 20 mL 2× YT media supplied with antibiotics and an overnight culture incubated at 30 °C, 250 RPM with an OD600nm of 0.072. Cells were grown at 37 °C in 50 mL conical tubes, and the cultures were induced with 0.5 mM IPTG at an OD600nm of 0.6-1.0. The 20 mL culture was then incubated at 27 °C and 250 RPM for 24 h. After 24 h, cells were harvested for protein extraction (centrifugation at 4 °C, 3000 RPM, 20 min). Cell pellets were resuspended in Zymo His-Binding buffer (Zymo Research Corporation) supplied with 0.15 mM FAD, 1 μL/mL DNase (Sigma Aldrich) and 1 mM InSolution [COMPOUND LEFT OUT] (Sigma Aldrich). The resuspended cell mixture was added to 0.5 mL of 0.1 mm glass beads (Biospec) and homogenized using a benchtop homogenizer (MP Biomedicals). Cell debris was separated from the crude extract by centrifugation at 4 °C and 15,000 RPM for 5 min. Protein purification was performed using His-Spin Protein Miniprep (Zymo Research Corporation) according to the manufacturer's instructions. The concentrations of purified protein were quantified by a Bradford assay using BSA as a standard. Purified protein was stored in aliquots with 20% (v/v) glycerol at −80 °C.
(§2) NMNH generation. NMNH generation was performed in 20 mL reaction volumes in a 50 ml conical tube containing 200 mM Tris-Cl at pH 8.0, 100 mM sodium chloride, 3 mM potassium chloride, 200 mM glucose, and 20 m MNMN^+. The reaction was initiating by spiking 500 ng of purified Bacillus subtilis glucose dehydrogenase I195R8. The reaction was incubated at 30 °C until reaction progression stopped, approximately 6 h. Reaction progression was monitored by observing the increase in light absorption at 340 nm, corresponding to the reduction of NMN^+ to NMNH. Then, the solution was filtered through a 15 kD cutoff filter to remove the protein. To purify the NMNH, the flowthrough was mixed with HPLC-grade acetonitrile to a final concentration of 70% acetonitrile, and the solution was passed through a Phenomenex Strata NH2 (2 g/12 mL, 55 μm, 70 Å) solid phase extraction column. The column was washed twice with 4 mL of 70:30 acetonitrile:water, then twice with 4 mL of 50:50 acetonitrile:water, twice with 4 mL of 30:70 acetonitrile:water, twice with 4 mL of nanopurified water, and finally twice with 4 mL of methanol. To elute the NMNH from the column, 2 mL of a solution containing 50:50 ammonium hydroxide:methanol was added to the column and incubated for 3 minutes before eluting. The elution step was repeated until no NMNH remained in the flow through, as monitored by light absorption at 340 nm. The elution fractions containing NMNH were pooled and aliquoted in 1 mL volumes into clean tubes. The solutions were dried over air and stored at −80 °C until use.
(§3) Lp Nox Enzymatic Assays and Kinetic study with NMNH, NAD(P) H. The Lp Nox activity (see FIG. 4A) was determined by the change in light absorption at 340 nm at 37 °C in 50 mM Tris-Cl buffer pH 7.0. The reactions were started by adding the purified protein to the prewarmed 37 °C assay mixture containing 0.3 mM of respective cofactor. The absorbance change at 340 nm for NAD(P) H and NMNH was detected using a SpectraMax M3 microplate reader. For kinetics parameter determination (see Table 2), cofactor concentrations were varied from 0 to 2 mM and the results were fitted to the standard Michaelis-Menten equation or Lineweaver-Burk equation to acquire catalytic efficiencies (kcat/Km) when the cofactor concentration tested could not saturate the enzyme activity or during the presence of substrate inhibition. Cofactor concentration over 2 mM could not be measured accurately on M3 spectrometer due to detector absorbance saturation at 340 nm.

[3] = molecular target: T1, Lactobacillus pentosus NADH oxidase (Lp Nox), wild type, SEQ ID NO:1; test: Lp Nox enzymatic kinetics, cofactor oxidation at 340 nm, wild type; format: biochemical; conditions: role: cofactor; 50 mM Tris-HCl pH 7.0, 37 °C; enzyme could not be saturated with the cofactor concentrations tested
Description: as §1
NMNH generation. NMNH generation was performed in 20 mL reaction volumes in a 50 ml conical tube containing 200 mM Tris-Cl at pH 8.0, 100 mM sodium chloride, 3 mM potassium chloride, 200 mM glucose, and 20 m MNMN^+. The reaction was initiating by spiking 500 ng of purified Bacillus subtilis glucose dehydrogenase I195R8. The reaction was incubated at 30 °C until reaction progression stopped, approximately 6 h. Reaction progression was monitored by observing the increase in light absorption at 340 nm, corresponding to the reduction of NMN^+ to NMNH. Then, the solution was filtered through a 15 kD cutoff filter to remove the protein. […] The elution step was repeated until no NMNH remained in the flow through, as monitored by light absorption at 340 nm. […]
Lp Nox Enzymatic Assays and Kinetic study with NMNH, NAD(P) H. The Lp Nox activity (see FIG. 4A) was determined by the change in light absorption at 340 nm at 37 °C in 50 mM Tris-Cl buffer pH 7.0. […] The absorbance change at 340 nm for NAD(P) H and NMNH was detected using a SpectraMax M3 microplate reader. […] Cofactor concentration over 2 mM could not be measured accurately on M3 spectrometer due to detector absorbance saturation at 340 nm.

[4] = molecular target: T3, Lactobacillus pentosus NADH oxidase (Lp Nox) variant LP-3-EP (I158S-D177W-G178E-V240L-P362H-V395L), SEQ ID NO:7 (Lactiplantibacillus pentosus, UniProt A0A0U3FIG2, D177W/G178E/I158S/P362H/V240L/V395L); test: Lp Nox enzymatic kinetics, cofactor oxidation at 340 nm, variant LP-3-EP; format: biochemical
T3 construct: variant LP-3-EP
T3 sequence (A0A0U3FIG2 1-450 I158S/D177W/G178E/V240L/P362H/V395L): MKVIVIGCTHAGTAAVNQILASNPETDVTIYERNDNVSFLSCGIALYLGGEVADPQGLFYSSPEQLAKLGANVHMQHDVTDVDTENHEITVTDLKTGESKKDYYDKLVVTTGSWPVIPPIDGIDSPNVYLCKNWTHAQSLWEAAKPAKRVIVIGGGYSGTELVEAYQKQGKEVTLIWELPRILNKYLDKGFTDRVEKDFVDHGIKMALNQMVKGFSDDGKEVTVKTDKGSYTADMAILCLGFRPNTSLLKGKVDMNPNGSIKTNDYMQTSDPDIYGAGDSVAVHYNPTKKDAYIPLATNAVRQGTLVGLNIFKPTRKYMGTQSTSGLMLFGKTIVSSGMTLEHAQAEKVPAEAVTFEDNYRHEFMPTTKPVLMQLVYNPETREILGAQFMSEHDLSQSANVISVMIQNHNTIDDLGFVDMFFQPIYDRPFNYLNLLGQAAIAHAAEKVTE
Description: as §1, §2, §3

[5] = molecular target: T4, Lactobacillus pentosus NADH oxidase (Lp Nox) variant LP-7 (I158S-D177W-V240L), SEQ ID NO:3 (Lactiplantibacillus pentosus, UniProt A0A0U3FIG2, D177W/I158S/V240L); test: Lp Nox enzymatic kinetics, cofactor oxidation at 340 nm, variant LP-7; format: biochemical; conditions: role: cofactor
T4 construct: variant LP-7
T4 sequence (A0A0U3FIG2 1-450 I158S/D177W/V240L): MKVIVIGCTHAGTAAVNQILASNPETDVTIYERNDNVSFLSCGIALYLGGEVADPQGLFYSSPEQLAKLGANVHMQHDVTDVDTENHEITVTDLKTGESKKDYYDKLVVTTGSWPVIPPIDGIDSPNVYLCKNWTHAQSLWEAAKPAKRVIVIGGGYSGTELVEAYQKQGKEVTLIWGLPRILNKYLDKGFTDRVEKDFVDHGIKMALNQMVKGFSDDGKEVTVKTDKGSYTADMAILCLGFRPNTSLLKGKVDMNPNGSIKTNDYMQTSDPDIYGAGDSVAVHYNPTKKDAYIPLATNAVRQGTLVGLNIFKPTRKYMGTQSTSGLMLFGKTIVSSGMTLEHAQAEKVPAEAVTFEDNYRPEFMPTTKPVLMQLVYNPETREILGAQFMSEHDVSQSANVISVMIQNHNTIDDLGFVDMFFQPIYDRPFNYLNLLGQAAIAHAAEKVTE
Description: as §1, §2, §3

[6] = apparent, 50 mM Tris-HCl pH 7.0, 37 °C, cofactor 0 to 2 mM

CN1C=CCC(C(N)=O)=C1 [MNAH, N-methyl-1,4-dihydronicotinamide]
catalytic efficiencies (in words) [1]: low catalytic efficiencies

NC(=O)C1=CN([C@@H]2O[C@H](COP(=O)(O)O)[C@@H](O)[C@H]2O)C=CC1 [NMNH, nicotinamide mononucleotide]
kcat/Km (catalytic efficiency for NMNH) ([2]; enzyme could not be saturated with the cofactor concentrations tested): 10000 ± 1000 M⁻¹ s⁻¹ | kcat/Km (catalytic efficiency for NMNH) [3]: 2300 ± 100 M⁻¹ s⁻¹ | kcat/Km (catalytic efficiency for NMNH) ([4]; role: cofactor, 50 mM Tris-HCl pH 7.0, 37 °C, enzyme could not be saturated with the cofactor concentrations tested): 23000 ± 1000 M⁻¹ s⁻¹ | inhibition effect when NMNH was utilized ([4]; role: cofactor, NMNH as cofactor): not seen | gain of catalytic efficiency for NMNH from LP 3 ([4]; role: cofactor, ratio of kcat/Km to LP 3): ~ 2.5 fold | increase of catalytic efficiency for NMNH from the wild type ([4]; role: cofactor, ratio of kcat/Km to wild type): ~ 10 fold | kcat/Km (catalytic efficiency for NMNH) ([5]; 50 mM Tris-HCl pH 7.0, 37 °C, enzyme could not be saturated with the cofactor concentrations tested): 18000 ± 1000 M⁻¹ s⁻¹ | increase of catalytic efficiency for NMNH from the wild type ([5]; ratio of kcat/Km to wild type): ~ 8 fold

NC(=O)C1=CN([C@@H]2O[C@H](COP(=O)(O)OP(=O)(O)OC[C@H]3O[C@@H](n4cnc5c(N)ncnc54)[C@H](O)[C@@H]3O)[C@@H](O)[C@H]2O)C=CC1 [NADH, nicotinamide adenine dinucleotide]
Km ([2]; apparent, cofactor 0 to 2 mM): 1900 ± 40 µM | kcat ([2]; apparent, cofactor 0 to 2 mM): 31 ± 1 s⁻¹ | kcat/Km ([2]; apparent, cofactor 0 to 2 mM): 17000 ± 1000 M⁻¹ s⁻¹ | kcat/Km ([4]; role: cofactor, 50 mM Tris-HCl pH 7.0, 37 °C, estimated based on kinetics under lower cofactor concentrations before inhibition was observed): 49 ± 2.0^c mM^−1s^−1 | inhibition of LP 3-EP activity by the cofactor ([4]; role: inhibitor (cofactor inhibition), above 1 mM NADH or NADPH, fits poorly with the substrate inhibition rate equation): strongly inhibited | Km [5, 6]: 1700 ± 200 µM | kcat [5, 6]: 47 ± 4 s⁻¹ | kcat/Km [5, 6]: 28000 ± 1000 M⁻¹ s⁻¹
